Reference: patent US20060211672A1, “Use of estrogen receptor-beta selective agonists for radiation-or chemotherapy-induced mucositis and radiation cystitis” (Wyeth, priority 2005, published 2006)

System: radiation-induced mucositis
Assay: Acute radiation model of oral mucositis in hamsters
Type: in vivo, Syrian Golden Hamsters
Conditions: for % Days with mucositis score ≧3 / Days with mucositis score ≧3: once daily beginning on day -1, 40 Gy radiation day 0, scored day 6 to 28; for Days with mucositis score ≧3: Total Days 240
Excerpt: The acute radiation model in hamsters has proven to be an accurate, efficient and cost-effective technique to provide a preliminary evaluation of anti-mucositis compounds (Sonis et al., Oral Surg Oral Med Oral Pathol 1990; 69(4):437-448). The course of mucositis in this model is well defined and results in peak scores approximately 14-16 Days following radiation. The acute model has little systemic toxicity, resulting in few hamster deaths which makes the acute model amenable for initial efficacy studies. The acute model has also been used to study specific mechanistic elements in the pathogenesis of mucositis.
Forty (40) Male LVG Syrian Golden Hamsters (Charles River Laboratories), aged 5 to 6 weeks, with average body weight of 116.3 g at study commencement, were used. Animals were individually numbered using an ear punch and housed 10 animals per cage. Animals were fed with a Purina Labdiet® 5061 rodent diet and water was provided ad libitum. Animals were acclimatized for two days prior to study commencement.
Animals were randomly and prospectively divided into four (4) treatment groups prior to irradiation. Mucositis was induced using a standardized acute radiation protocol, where a single dose of radiation (40 Gy/dose) was administered to all animals on day 0. Radiation was generated with a 160 kilovolt potential (15-ma) source at a focal distance of 30 cm, hardened with an AI filtration system. Irradiation targeted the left buccal pouch mucosa at a rate of 3.2 Gy/minute. Prior to irradiation, animals were anesthetized with an intra-peritoneal injection of Ketamine (160 mg/kg) and Xylazine (8 mg/kg). The left buccal pouch was everted, fixed and isolated using a lead shield.
Controls or 3-(3-Fluoro-4-hydroxy-phenyl)-7-hydroxy-naphthalene-1-carbonitrile (Compound 1) were given in the volumes and by the routes described in Table 1 and dosing began the day before radiation treatment.
The grade of mucositis was scored, beginning day 6, and for every second day thereafter, through and including day 28. For the evaluation of mucositis, the animals were anesthetized with an inhalation anesthetic, and the left pouch everted. Mucositis was scored visually by comparison to a validated photographic scale, ranging from 0 for normal, to 5 for severe ulceration (clinical scoring). In descriptive terms, this scale is defined as follows: Score: Description: • 0 Pouch completely healthy. No erythema or vasodilation. • 1 Light to severe erythema and vasodilation. No erosion of mucosa. • 2 Severe erythema and vasodilation. Erosion of superficial aspects of mucosa leaving denuded areas. Decreased stippling of mucosa. • 3 Formation of off-white ulcers in one or more places. Ulcers may have a yellow/gray appearance due to pseudomembrane. Cumulative size of ulcers should equal about ¼ of the pouch. Severe erythema and vasodilation. • 4 Cumulative seize of ulcers should equal about ½ of the pouch. Loss of pliability. Severe erythema and vasodilation. • 5 Virtually all of pouch is ulcerated. Loss of pliability (pouch can only partially be extracted from mouth)
A score of 1-2 is considered to represent a mild stage of the disease, whereas a score of 3-5 is considered to indicate moderate to severe mucositis.
The effect on mucositis of each route of administration of Compound 1 compared to vehicle was assessed by determining the difference in the number of days hamsters in each group have ulcerative (score ≧3) mucositis. Statistical significance was assessed by a Chi-squared test and p<0.05 was considered statistically significant.

N#Cc1cc(-c2ccc(O)c(F)c2)cc2ccc(O)cc12 [Compound 1, 3-(3-Fluoro-4-hydroxy-phenyl)-7-hydroxy-naphthalene-1-carbonitrile]
% Days with mucositis score ≧3 (Gavage, 10 mg/kg): 44% | Days with mucositis score ≧3 (Gavage, 10 mg/kg): 106 days | % Days with mucositis score ≧3 (Topical (intrapouch), 500 nM): 30% | Days with mucositis score ≧3 (Topical (intrapouch), 500 nM): 72 days | change in the number of days hamsters had ulcerative (score ≧3) mucositis, in words (administered by gavage, vs vehicle): no significant change | number of days animals experienced ulcerative mucositis, in words (administered topically (into the pouch), vs vehicle): significantly reduced
